Among the data in PubChem BioAssay (NCI) are GI50 and TGI values, retold here.

Among the test systems are SN12C renal; BT-549 breast; SNB-19 CNS; OVCAR-5 ovarian; HCT-116 colon; HT29 colon; MALME-3M melanoma; NCI-H23 lung; NCI/ADR-RES ovarian; CCRF-CEM leukemia.
Assay in all cases: NCI anticancer screen, dose series, 48 h

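A five-concentration, 48-hour dose response in 96-well plates underlies each endpoint, interpolated linearly between surrounding concentrations. GI50 is the concentration that inhibits growth by half. TGI denotes the concentration required for complete inhibition of growth.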 Some results are limits rather than exact numbers.

As to `COc1ccc(OC)c2c1[nH]c(=O)c1c3ccccc3cn21`, the GI50 was 1.23 µM in the assay with SN12C renal; 2.27 µM in the assay with BT-549 breast; 1.64 µM in the assay on SNB-19 CNS; 1.87 µM in the assay with OVCAR-5 ovarian; 0.673 µM in the assay with HCT-116 colon; 0.813 µM with HT29 colon. For the same compound, the GI50 in the assay on MALME-3M melanoma was 1.78 µM; in the assay with NCI-H23 lung it was 1.49 µM; in the assay on NCI/ADR-RES ovarian, 1.5 µM; with CCRF-CEM leukemia it was 1.17 µM. Moreover, the TGI with SN12C renal came to 2.58 µM; in the assay with BT-549 breast it was 5.29 µM; in the assay on SNB-19 CNS it was 3.4 µM; in the assay with OVCAR-5 ovarian, 3.69 µM; in the assay with HCT-116 colon, 2.01 µM; in the assay on HT29 colon, 2.54 µM. Further, the TGI with MALME-3M melanoma came to 3.32 µM; with NCI-H23 lung, 3.04 µM; in the assay on NCI/ADR-RES ovarian it was 3.38 µM; with CCRF-CEM leukemia it was 3.81 µM.

Regarding `COc1cccc(C2CC(C)(O)Oc3cc4c(cc32)OCO4)c1O` (stereo not given), the TGI is 89.2 µM in the assay on SN12C renal; 62.4 µM with BT-549 breast; above 100 µM with SNB-19 CNS; above 95.7 µM in the assay on OVCAR-5 ovarian; above 69.4 µM in the assay with HCT-116 colon; 50.6 µM in the assay on HT29 colon. The TGI in the assay on MALME-3M melanoma is above 100 µM; in the assay on NCI-H23 lung it was 92.9 µM; in the assay with NCI/ADR-RES ovarian, 59.3 µM; in the assay on CCRF-CEM leukemia, above 95.9 µM.

With `CSC1=Nc2c(c(C)c(C)n2COC(CO)CO)C2=NC(=O)C(C)N12` (stereo not given), the GI50 in the assay on SN12C renal, with BT-549 breast, in the assay with SNB-19 CNS, in the assay on OVCAR-5 ovarian, in the assay on HCT-116 colon and with HT29 colon was above 100 µM each time. Also, the GI50 in the assay on MALME-3M melanoma, in the assay with NCI-H23 lung, with NCI/ADR-RES ovarian and in the assay with CCRF-CEM leukemia was above 100 µM in each case. The TGI with SN12C renal, in the assay with BT-549 breast, in the assay on SNB-19 CNS, with OVCAR-5 ovarian, with HCT-116 colon and in the assay with HT29 colon was above 100 µM in each case. In addition, the TGI in the assay on MALME-3M melanoma, in the assay with NCI-H23 lung, in the assay with NCI/ADR-RES ovarian and with CCRF-CEM leukemia was above 100 µM each time.

`CCOC(=O)c1ccc(NC(=O)Oc2ccc3c(C)cc(=O)oc3c2)cc1`: the TGI with SN12C renal is above 100 µM; in the assay with BT-549 breast, 89.5 µM; with SNB-19 CNS, above 100 µM; with OVCAR-5 ovarian, above 100 µM; with HCT-116 colon it was 82.9 µM; in the assay with HT29 colon, above 100 µM. Also, the TGI with MALME-3M melanoma is above 100 µM; with NCI-H23 lung, above 100 µM; in the assay with NCI/ADR-RES ovarian, above 100 µM; in the assay on CCRF-CEM leukemia, 58.4 µM.

Consider `COc1ccc(Sc2[nH]c(C(C)=O)c3ccccc23)cc1`, for which the GI50 in the assay with SN12C renal was 11 µM; in the assay with BT-549 breast, 3.13 µM; in the assay on SNB-19 CNS it was 11.6 µM; in the assay with OVCAR-5 ovarian, 17.3 µM; with HCT-116 colon it was 12 µM; in the assay with HT29 colon it was 15.4 µM. Also, the GI50 in the assay on MALME-3M melanoma was 17.8 µM; in the assay on NCI-H23 lung, 14.6 µM; in the assay on NCI/ADR-RES ovarian, 11.8 µM; in the assay with CCRF-CEM leukemia, 14.3 µM. For the same compound, the TGI in the assay on SN12C renal amounted to 24.7 µM; in the assay with BT-549 breast it was 17.4 µM; in the assay with SNB-19 CNS, 31.2 µM; with OVCAR-5 ovarian, 53.1 µM; in the assay on HCT-116 colon, 24.3 µM; in the assay on HT29 colon, 30.7 µM. For the same compound, the TGI in the assay with MALME-3M melanoma worked out at 51.3 µM; with NCI-H23 lung, 41.5 µM; in the assay on NCI/ADR-RES ovarian, 31.8 µM; with CCRF-CEM leukemia it was 40 µM.

As for `Cn1c(I)c(C#CCO[Si](C)(C)C(C)(C)C)c(=O)[nH]c1=O`, the GI50 is 17.1 µM in the assay with SN12C renal; 16.4 µM in the assay with BT-549 breast; above 100 µM with SNB-19 CNS; 18 µM with OVCAR-5 ovarian; 14.3 µM in the assay with HCT-116 colon; 20.9 µM with HT29 colon. Also, the GI50 was 1.78 µM in the assay on MALME-3M melanoma, 19.3 µM in the assay with NCI-H23 lung, 19.2 µM with NCI/ADR-RES ovarian and 1.92 µM with CCRF-CEM leukemia. The TGI was 34.2 µM in the assay on SN12C renal; 30.3 µM in the assay with BT-549 breast; above 100 µM with SNB-19 CNS; 33 µM with OVCAR-5 ovarian; 28.5 µM in the assay on HCT-116 colon; 39.7 µM in the assay with HT29 colon. Besides, the TGI in the assay with MALME-3M melanoma worked out at 3.85 µM; in the assay on NCI-H23 lung, 39.5 µM; in the assay on NCI/ADR-RES ovarian it was 38.1 µM; with CCRF-CEM leukemia, 4.17 µM.

Consider `CC(=O)Nc1ccc(S(=O)(=O)N2C(=O)CCC2C(=O)Nc2ccc(Br)cc2)cc1` (stereo not given), for which the GI50 with SN12C renal was 2.79 µM; in the assay on BT-549 breast it was 1.79 µM; with SNB-19 CNS, 2.38 µM; with OVCAR-5 ovarian it was 4.86 µM; with HCT-116 colon, 1.74 µM; in the assay with HT29 colon, 2.76 µM. Further, the GI50 with MALME-3M melanoma was 2.64 µM; in the assay with NCI-H23 lung, 1.83 µM; in the assay on NCI/ADR-RES ovarian, 2.47 µM; in the assay with CCRF-CEM leukemia, 1.49 µM. Further, the TGI in the assay with SN12C renal is 36 µM; in the assay with BT-549 breast, 8.38 µM; in the assay on SNB-19 CNS, 20.2 µM; with OVCAR-5 ovarian it was 21.7 µM; in the assay on HCT-116 colon it was above 100 µM; with HT29 colon, 14.7 µM. The TGI is 9.17 µM in the assay with MALME-3M melanoma, 16.6 µM in the assay on NCI-H23 lung, above 100 µM with NCI/ADR-RES ovarian and 11 µM in the assay with CCRF-CEM leukemia.

On to `O=C(O)c1nnsc1-c1ccc(-c2snnc2C(=O)O)cc1`, for which the TGI in the assay with SN12C renal, with BT-549 breast, in the assay on SNB-19 CNS, in the assay on OVCAR-5 ovarian, in the assay on HCT-116 colon and in the assay with HT29 colon was above 100 µM throughout. The TGI in the assay with MALME-3M melanoma was above 100 µM; in the assay on NCI-H23 lung it was above 100 µM; in the assay with NCI/ADR-RES ovarian it was above 100 µM; in the assay on CCRF-CEM leukemia, 9.63 µM.

For `COc1cccc(F)c1C(=O)c1cnc(NC2CCN(S(C)(=O)=O)CC2)nc1N`, the GI50 was 5.08 µM in the assay with SN12C renal; 5.45 µM in the assay on BT-549 breast; 3.46 µM with SNB-19 CNS; 3.59 µM with OVCAR-5 ovarian; 1.34 µM in the assay on HCT-116 colon; 2.54 µM with HT29 colon. For the same compound, the GI50 is 4.35 µM in the assay with MALME-3M melanoma, 3.15 µM in the assay on NCI-H23 lung, 6.9 µM with NCI/ADR-RES ovarian and 2.51 µM with CCRF-CEM leukemia. Moreover, the TGI with SN12C renal is above 25 µM; in the assay on BT-549 breast, 16.8 µM; in the assay with SNB-19 CNS it was above 25 µM; in the assay with OVCAR-5 ovarian, above 25 µM; in the assay with HCT-116 colon it was above 25 µM; with HT29 colon, 23.3 µM. The TGI is 13.7 µM in the assay with MALME-3M melanoma, 21.7 µM in the assay with NCI-H23 lung, above 25 µM in the assay with NCI/ADR-RES ovarian and above 25 µM in the assay with CCRF-CEM leukemia.
